Consider eight molecules from PMC7001580 (Nature chemical biology, 2016).

Data set [1] addresses T1, YMR027W (Saccharomyces cerevisiae, UniProt Q04371).
T1 sequence (Q04371 1-470): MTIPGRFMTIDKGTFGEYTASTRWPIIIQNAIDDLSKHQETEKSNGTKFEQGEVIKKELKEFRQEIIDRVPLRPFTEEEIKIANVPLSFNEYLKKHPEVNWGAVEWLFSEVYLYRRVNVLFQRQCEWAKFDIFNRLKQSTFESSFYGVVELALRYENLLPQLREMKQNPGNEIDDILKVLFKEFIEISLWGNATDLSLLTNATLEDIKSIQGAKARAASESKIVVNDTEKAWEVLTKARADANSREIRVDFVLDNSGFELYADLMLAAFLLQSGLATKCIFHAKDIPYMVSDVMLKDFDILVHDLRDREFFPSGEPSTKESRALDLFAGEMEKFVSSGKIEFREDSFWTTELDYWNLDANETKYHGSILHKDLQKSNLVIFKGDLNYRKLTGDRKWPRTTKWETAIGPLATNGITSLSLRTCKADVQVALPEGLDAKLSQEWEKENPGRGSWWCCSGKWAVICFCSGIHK
The experiment in a line: crystal structure, soaking with […] fructose 6-phosphate, […] Å. The format is binding. The settings on record: Mg2+ bound, pH 5.5; active site; protein pretreated with chymotrypsin.

Data set [2] has as its target T2, At2g17340 (Arabidopsis thaliana, UniProt Q949P3).
T2 sequence (Q949P3 1-367 limits assumed): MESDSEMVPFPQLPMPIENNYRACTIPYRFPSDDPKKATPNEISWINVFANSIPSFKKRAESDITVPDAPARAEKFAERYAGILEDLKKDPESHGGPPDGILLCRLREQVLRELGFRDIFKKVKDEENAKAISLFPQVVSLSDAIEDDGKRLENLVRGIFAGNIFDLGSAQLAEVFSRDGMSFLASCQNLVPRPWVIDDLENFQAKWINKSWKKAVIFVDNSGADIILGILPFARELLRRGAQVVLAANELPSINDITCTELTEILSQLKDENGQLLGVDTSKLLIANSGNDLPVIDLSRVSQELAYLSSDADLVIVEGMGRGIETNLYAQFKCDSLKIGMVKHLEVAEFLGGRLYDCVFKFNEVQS
As to the kind of experiment: phosphate release, Malachite Green, Hill fit. It counts as biochemical. The conditions noted are these: 0.2 mM Ni2+, 30 °C; sigmoidal kinetics.

The next data set concerns the target T3, PH1575 (Pyrococcus horikoshii, UniProt O59272).
T3 sequence (O59272 1-287): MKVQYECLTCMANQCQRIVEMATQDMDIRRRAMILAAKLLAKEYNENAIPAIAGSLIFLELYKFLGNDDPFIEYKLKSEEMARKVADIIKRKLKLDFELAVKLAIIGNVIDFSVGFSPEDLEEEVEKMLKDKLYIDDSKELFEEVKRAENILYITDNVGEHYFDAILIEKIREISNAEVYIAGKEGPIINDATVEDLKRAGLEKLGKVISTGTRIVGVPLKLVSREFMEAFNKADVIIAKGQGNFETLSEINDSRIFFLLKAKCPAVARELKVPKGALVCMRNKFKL
The experiment in a line: phosphate release, Malachite Green, Michaelis-Menten fit. The format is biochemical. The settings on record: Ni2+ as preferred metal.

Data set [3] deals with T4, YMR027W (Saccharomyces cerevisiae, UniProt Q04371, D254A).
T4 sequence (Q04371 1-470 D254A): T1 sequence (Q04371 1-470) with D254A
The experiment in a line: phosphatase activity compared with wild type. It counts as biochemical. The settings on record: alanine mutant of signature residue.

Data set [4] has as its target T5, YMR027W (Saccharomyces cerevisiae, UniProt Q04371, N255A).
T5 sequence (Q04371 1-470 N255A): T1 sequence (Q04371 1-470) with N255A
The experiment in a line: phosphatase activity compared with wild type. The conditions noted are these: alanine mutant of signature residue. The format is biochemical.

The target in data set [5] is T6, At2g17340 (Arabidopsis thaliana, UniProt Q949P3, D220A).
T6 sequence (Q949P3 1-367 D220A limits assumed): T2 sequence (Q949P3 1-367 limits assumed) with D220A
As to the kind of experiment: phosphatase activity compared with wild type. It counts as biochemical. The settings on record: alanine mutant of signature residue.

The target in data set [6] is T7, At2g17340 (Arabidopsis thaliana, UniProt Q949P3, N221A).
T7 sequence (Q949P3 1-367 N221A limits assumed): T2 sequence (Q949P3 1-367 limits assumed) with N221A
The experiment in a line: phosphatase activity compared with wild type. It counts as biochemical. The settings on record: alanine mutant of signature residue.

The data set “SEC” concerns the molecule itself. The experiment in a line: SEC.

Substitutions are numbered along the chain they refer to.

Take `O=P(O)(O)OC[C@H]1OC(O)(CO)[C@@H](O)[C@@H]1O` (some centres unmarked) [F6P, fructose 6-phosphate]: the “crystal structure, soaking with 10 mM fructose 6-phosphate, 1.77 Å” value at YMR027W [1] is “Crystal soaking using YMR027W and the substrate fructose 6-phosphate”.

With `O=P(O)(O)OC[C@H]1OC(O)C[C@@H]1O` (some centres unmarked) [2-deoxyribose 5-phosphate], on At2g17340 [2], the S0.5 result is reported as “At2g17340 showed sigmoidal kinetics with ribose 5-phosphate or 2-deoxyribose 5-phosphate”.

Consider `O=P(O)(O)OC[C@H]1OC(O)[C@H](O)[C@@H]1O` (some centres unmarked) [ribose 5-phosphate], for which the S0.5 entry at At2g17340 [2] is listed as “At2g17340 showed sigmoidal kinetics with ribose 5-phosphate or 2-deoxyribose 5-phosphate”.

As to `Nc1ncnc2c1ncn2[C@@H]1O[C@H](COP(=O)(O)OP(=O)(O)O)[C@@H](O)[C@H]1O` [ADP], the kinetic constants entry at PH1575 was “the kinetic constants for 8-oxo-dGTP were close to those for ADP”.

Turning to `O=[N+]([O-])c1ccc(OP(=O)(O)O)cc1` [pNPP, p-nitrophenyl phosphate], the catalytic activity result was “signature residues of YMR027W (Asp254, Asn255, and Asp292)” at YMR027W [3]; “signature residues of YMR027W (Asp254, Asn255, and Asp292)” on YMR027W [4]; “At2g17340 (Asp220, Asn221, and Asp256) abolished catalytic activity” on At2g17340 [5]; “At2g17340 (Asp220, Asn221, and Asp256) abolished catalytic activity” on At2g17340 [6].

`Nc1nc2c([nH]c(=O)n2[C@H]2C[C@H](O)[C@@H](COP(=O)(O)OP(=O)(O)OP(=O)(O)O)O2)c(=O)[nH]1` [8-oxo-dGTP]: the kinetic constants entry on PH1575 is given as “the kinetic constants for 8-oxo-dGTP were close to those for ADP”.

B1: Pyrococcus horikoshii DUF89 subfamily I protein PH1575 (enzyme, P. horikoshii)
chain: T3 sequence (O59272 1-287)
As to B1, in “SEC”, the stoichiometry N – broadly, a count of units in the complex or per binding partner – turned out to be 2.

B2: Archaeoglobus fulgidus DUF89 subfamily I protein AF1104 (enzyme, A. fulgidus)
chain: MKISPLCPSCLLGRVYYEAKLVTDDEDLISQCVDESLKILAENYSSRPINAHLATRIHRRVYEILGVEDPYAEVKARANEVARQVLPLAKEIVEGSDDPFKTAVIVSIVGNNFDYGVQGHKVVEEEFRDFLKRKVQEGLKINDTERIKELSSGKVVYLTDNAGEIFFDTLLMKEIKRRCEKLTAVVRGRPIISDATIEDARLARVDKIADELLTNGKGAIGIIMDELPDETRKALEEADLIVAKGMANYECLSDGSLKPIAFLLTAKCEPVARDIGVNVGDMVAKVVE
For the molecule B2, the “stoichiometry N” value in the data set “SEC” was 2.
